System: HCV pseudoparticles (genotype 1a HCV E1 and E2 envelope, H77C isolate)
Test: microbe, parasite or virus in culture
Assay type: cell-based
Settings: Hepatitis C virus, Huh-7, 48 h, HCV pseudoparticle infection of Huh7 cells, luciferase 2 days after infection; average of duplicates

Row | Compound | EC50
1 | O=C(NCC[C@H](NC(=O)c1ccc(Nc2nc(NC3(c4ccc(Cl)cc4)CC3)nc(OCC(F)(F)F)n2)cc1)C(=O)O)C(=O)Nc1cccc(-c2ccccc2)c1 [Compound 1523] | 260 pM
2 | O=C(Nc1ccc(C(=O)O)cc1)C(=O)NC1CCCC1CNC(=O)c1ccc(Nc2nc(NC3(c4ccc(Cl)cc4)CC3)nc(OCC(F)(F)F)n2)cc1 (stereo not shown) [Compound 1464] | 480 pM
3 | CC(C)(CNC(=O)C(=O)Nc1ccccc1Cl)CNC(=O)c1ccc(Nc2nc(NC3(c4ccc(Cl)cc4)CC3)nc(OCC(F)(F)F)n2)cc1 [Compound 1571] | 50 pM
4 | COC(=O)[C@H](CCNC(=O)C(=O)N(C)c1ccccc1)NC(=O)c1ccc(Nc2nc(NC3(c4ccc(Cl)cc4)CC3)nc(OCC(F)(F)F)n2)cc1 [Compound 1235] | 530 pM

Same assay, conditions: Hepatitis C virus, Huh-7, 48 h, HCV pseudoparticles (genotype 1a, H77C) in Huh7 cells; average of duplicate; luciferase 2 days after infection

Row | Compound | EC50
5 | Cc1ccc(NC(=O)C(=O)NCC(C)(C)CNC(=O)c2ccc(Nc3nc(NC4(c5ccc(Cl)cc5)CC4)nc(OCC(F)(F)F)n3)cc2)c(C)c1 [Compound 3055] | 9.5 pM
6 | Cc1ccc(NC(=O)C(=O)NCC(C)(C)CNC(=O)c2ccc(Nc3nc(NC4(c5ccc(Cl)cc5)CC4)nc(OCC(F)(F)F)n3)cc2-n2nnnc2C)cc1 [Compound 3518] | 97 pM
7 | COC(=O)[C@H](CNC(=O)C(=O)Nc1ccc(OCCc2ccccn2)cc1)NC(=O)c1ccc(Nc2nc(NC3(c4ccc(Cl)cc4)CC3)nc(OCC(F)(F)F)n2)cc1 [Compound 3198] | 1020 pM

Same assay, conditions: Hepatitis C virus, Huh-7, 48 h, HCV pseudoparticles, Huh7 cells, luciferase 2 days after infection; average of duplicates

Row | Compound | EC50
8 | Cc1nnc(-c2ccc(NC(=O)C(=O)NCC(C)(C)CNC(=O)c3ccc(Nc4nc(NC5(c6ccc(Cl)cc6)CC5)nc(OCC(F)(F)F)n4)cc3)cc2)[nH]1 [Compound 3674] | 150 pM
9 | Cn1nnnc1-c1cccc(NC(=O)C(=O)NC[C@H](NC(=O)c2ccc(Nc3nc(NC4(c5ccc(Cl)cc5)CC4)nc(OCC(F)(F)F)n3)cc2)C(=O)Cl)c1 [Compound 3786] | 550 pM

Same assay, conditions: Hepatitis C virus, Huh-7, 48 h, read-out: Activity (EC50 class), HCV pseudoparticle infection of Huh7 cells, luciferase 2 days after infection; EC50 expressed as class A/B

Row | Compound | EC50
10 | COC(=O)[C@H](CCNC(=O)C(=O)NC1CCC(F)(F)CC1)NC(=O)c1ccc(Nc2nc(NC3(c4ccc(Cl)cc4)CC3)nc(OCC(F)(F)F)n2)cc1 [Compound 1099] | 10 to 10000 pM
11 | COC(=O)[C@H](CCNC(=O)C(=O)NCC1CCCCCC1)NC(=O)c1ccc(Nc2nc(NC3(c4ccc(Cl)cc4)CC3)nc(OCC(F)(F)F)n2)cc1 [Compound 1197] | 10 to 10000 pM
12 | CC(C)(C)CNC(=O)C(=O)NCC[C@H](NC(=O)c1ccc(Nc2nc(NC3(c4ccc(Cl)cc4)CC3)nc(OCC(F)(F)F)n2)cc1)C(=O)O [Compound 1205] | 10 to 10000 pM
13 | COC(=O)[C@H](CNC(=O)C(=O)NCC1CCCc2ccccc21)NC(=O)c1ccc(Nc2nc(NC3(c4ccc(Cl)cc4)CC3)nc(OCC(F)(F)F)n2)cc1 (stereo partly shown) [Compound 1299] | 10 to 10000 pM
14 | COC(=O)[C@H](CCNC(=O)C(=O)Nc1ccc(C(F)(F)F)cc1)NC(=O)c1ccc(Nc2nc(NC3(c4ccc(Cl)cc4)CC3)nc(OCC(F)(F)F)n2)cc1 [Compound 1233] | 10 to 10000 pM
15 | C[C@H]1[C@@H](NC(=O)C(=O)NCC[C@H](NC(=O)c2ccc(Nc3nc(NC4(c5ccc(Cl)cc5)CC4)nc(OCC(F)(F)F)n3)cc2)C(=O)O)C[C@H]2C[C@@H]1C2(C)C [Compound 1123] | 10 to 10000 pM
16 | O=C(NCC[C@H](NC(=O)c1ccc(Nc2nc(NC3(c4ccc(Cl)cc4)CC3)nc(OCC(F)(F)F)n2)cc1)C(=O)O)C(=O)Nc1cccc(-c2ccccc2)c1 [Compound 1523] | 10 to 10000 pM
17 | COC(=O)[C@H](CNC(=O)C(=O)Nc1ccccc1F)NC(=O)c1ccc(Nc2nc(NC3(c4ccc(Cl)cc4)CC3)nc(OCC(F)(F)F)n2)cc1 [Compound 1253] | 10 to 10000 pM
18 | O=C(Nc1ccc(C(=O)O)cc1)C(=O)NC1CCCC1CNC(=O)c1ccc(Nc2nc(NC3(c4ccc(Cl)cc4)CC3)nc(OCC(F)(F)F)n2)cc1 (stereo not shown) [Compound 1464] | 10 to 10000 pM
19 | COC(=O)[C@H](CCNC(=O)C(=O)NCc1ccc(OC)cc1OC)NC(=O)c1ccc(Nc2nc(NC3(c4ccc(Cl)cc4)CC3)nc(OCC(F)(F)F)n2)cc1 [Compound 1147] | 10 to 10000 pM
20 | CC(C)(CNC(=O)C(=O)Nc1ccccc1Cl)CNC(=O)c1ccc(Nc2nc(NC3(c4ccc(Cl)cc4)CC3)nc(OCC(F)(F)F)n2)cc1 [Compound 1571] | 10 to 10000 pM
21 | COCC1(CNC(=O)C(=O)NCC[C@@H](NC(=O)c2ccc(Nc3nc(NC4(c5ccc(Cl)cc5)CC4)nc(OCC(F)(F)F)n3)cc2)C(=O)O)CC1 [Compound 1419] | 10 to 10000 pM
22 | O=C(NCc1cccc(F)c1)C(=O)NC[C@H](NC(=O)c1ccc(Nc2nc(NC3(c4ccc(Cl)cc4)CC3)nc(OCC(F)(F)F)n2)cc1)C(=O)O [Compound 1163] | 10 to 10000 pM
23 | COc1ccc(CCNC(=O)C(=O)NC[C@H](NC(=O)c2ccc(Nc3nc(NC4(c5ccc(Cl)cc5)CC4)nc(OCC(F)(F)F)n3)cc2)C(=O)O)cc1 [Compound 1399] | 10 to 10000 pM
24 | COC(=O)[C@H](CCNC(=O)C(=O)N(C)c1ccccc1)NC(=O)c1ccc(Nc2nc(NC3(c4ccc(Cl)cc4)CC3)nc(OCC(F)(F)F)n2)cc1 [Compound 1235] | 10 to 10000 pM
25 | COC(=O)[C@H](CCNC(=O)C(N)=O)NC(=O)c1ccc(Nc2nc(NC3(c4ccc(Cl)cc4)CC3)nc(OCC(F)(F)F)n2)cc1 [Compound 1009, (S)-methyl 4-(2-amino-2-oxoacetamido)-2-(4-(4-(1-(4-chlorophenyl)cyclopropylamino)-6-(2,2,2-trifluoroethoxy)-1,3,5-triazin-2-ylamino)benzamido)butanoate] | 10 to 10000 pM

Same assay, conditions: Hepatitis C virus, Huh-7, 48 h, read-out: Activity (EC50 class), HCV pseudoparticles, Huh7 cells, luciferase 2 days after infection; average of duplicates

Row | Compound | EC50
26 | Cc1nnc(-c2ccc(NC(=O)C(=O)NCC(C)(C)CNC(=O)c3ccc(Nc4nc(NC5(c6ccc(Cl)cc6)CC5)nc(OCC(F)(F)F)n4)cc3)cc2)[nH]1 [Compound 3674] | 10 to 10000 pM
27 | CC(C)(CNC(=O)C(=O)Nc1cccc(Oc2ccccc2)c1)CNC(=O)c1ccc(Nc2nc(NC3(c4ccc(Cl)cc4)CC3)nc(OCC(F)(F)F)n2)cc1 [Compound 3667] | 10 to 10000 pM
28 | COC(=O)[C@H](CCNC(=O)C(=O)Nc1cccc(-n2cnnc2)c1)NC(=O)c1ccc(Nc2nc(NC3(c4ccc(Cl)cc4)CC3)nc(OCC(F)(F)F)n2)cc1 [Compound 3605] | 10 to 10000 pM
29 | O=C(NC[C@H](NC(=O)c1ccc(Nc2nc(NC3(c4ccc(Cl)cc4)CC3)nc(OCC(F)(F)F)n2)cc1)C(=O)O)C(=O)Nc1cccc(-c2ccc(Cl)cc2)c1 [Compound 3775] | 10 to 10000 pM
30 | CC(C)(CNC(=O)C(=O)Nc1nc2c(Cl)c(Cl)ccc2s1)CNC(=O)c1ccc(Nc2nc(NC3(c4ccc(Cl)cc4)CC3)nc(OCC(F)(F)F)n2)cc1 [Compound 3821] | 10 to 10000 pM
31 | COC(=O)[C@H](CNC(=O)C(=O)Nc1ccc(Oc2ccc(C(C)(C)C)cc2)nc1)NC(=O)c1ccc(Nc2nc(NC3(c4ccc(Cl)cc4)CC3)nc(OCC(F)(F)F)n2)cc1 [Compound 3698] | 10 to 10000 pM
32 | COC(=O)[C@H](CNC(=O)C(=O)Nc1cccc(OCc2ccccc2)c1)NC(=O)c1ccc(Nc2nc(NC3(c4ccc(Cl)cc4)CC3)nc(OCC(F)(F)F)n2)cc1 [Compound 3686] | 10 to 10000 pM
33 | COC(=O)[C@H](CNC(=O)C(=O)Nc1cccc(Oc2ccccn2)c1)NC(=O)c1ccc(Nc2nc(NC3(c4ccc(Cl)cc4)CC3)nc(OCC(F)(F)F)n2)cc1 [Compound 3726] | 10 to 10000 pM
34 | CC(C)(CNC(=O)C(=O)Nc1nc2ccc(S(N)(=O)=O)cc2s1)CNC(=O)c1ccc(Nc2nc(NC3(c4ccc(Cl)cc4)CC3)nc(OCC(F)(F)F)n2)cc1F [Compound 3678] | 10 to 10000 pM
35 | Cc1csc(-c2cccc(NC(=O)C(=O)NC[C@H](NC(=O)c3ccc(Nc4nc(NC5(c6ccc(Cl)cc6)CC5)nc(OCC(F)(F)F)n4)cc3)C(=O)Cl)c2)n1 [Compound 3780] | 10 to 10000 pM
36 | Cn1nnnc1-c1cccc(NC(=O)C(=O)NC[C@H](NC(=O)c2ccc(Nc3nc(NC4(c5ccc(Cl)cc5)CC4)nc(OCC(F)(F)F)n3)cc2)C(=O)Cl)c1 [Compound 3786] | 10 to 10000 pM

Same assay, conditions: Hepatitis C virus, Huh-7, read-out: Activity (EC50 class), HCV pseudoparticles (genotype 1a, H77C) in Huh7 cells; EC50 expressed as class A/B

Row | Compound | EC50
37 | COC(=O)[C@H](CCNC(=O)C(=O)Nc1ccc(-c2nncn2C)cc1)NC(=O)c1ccc(Nc2nc(NC3(c4ccc(Cl)cc4)CC3)nc(OCC(F)(F)F)n2)cc1 [Compound 3317] | 10 to 10000 pM
38 | Cc1ccc(NC(=O)C(=O)NCC(C)(C)CNC(=O)c2ccc(Nc3nc(NC4(c5ccc(Cl)cc5)CC4)nc(OCC(F)(F)F)n3)cc2)c(C)c1 [Compound 3055] | 10 to 10000 pM
39 | COC(=O)[C@H](CNC(=O)C(=O)Nc1ccc(Cl)cc1)NC(=O)c1ccc(Nc2nc(NC3(c4ccc(Cl)cc4)CC3)nc(OCC(F)(F)F)n2)cc1 [Compound 3081] | 10 to 10000 pM
40 | COC(=O)[C@H](CCNC(=O)C(=O)Nc1ccc(CNC(N)=O)cc1)NC(=O)c1ccc(Nc2nc(NC3(c4ccc(Cl)cc4)CC3)nc(OCC(F)(F)F)n2)cc1 [Compound 3314] | 10 to 10000 pM
41 | Cc1cc(Cl)ccc1NC(=O)C(=O)NCC(C)(C)CNC(=O)c1ccc(Nc2nc(NC3(c4ccc(Cl)cc4)CC3)nc(OCC(F)(F)F)n2)cc1 [Compound 3057] | 10 to 10000 pM
42 | Cc1cc(NC(=O)C(=O)N(CCO)CCCNC(=O)c2ccc(Nc3nc(NC4(c5ccc(Cl)cc5)CC4)nc(OCC(F)(F)F)n3)cc2)no1 [Compound 3500] | 10 to 10000 pM
43 | CC(C)(CNC(=O)C(=O)Nc1cccc(C(=O)c2ccccc2)c1)CNC(=O)c1ccc(Nc2nc(NC3(c4ccc(Cl)cc4)CC3)nc(OCC(F)(F)F)n2)cc1 [Compound 3078] | 10 to 10000 pM
44 | O=C(NC[C@H](NC(=O)c1ccc(Nc2nc(NC3(c4ccc(Cl)cc4)CC3)nc(OCC(F)(F)F)n2)cc1)C(=O)O)C(=O)Nc1ccc(Cn2cncn2)cc1 [Compound 3267] | 10 to 10000 pM
45 | O=C(NC/C(=N/C(=O)c1ccc(Nc2nc(NC3(c4ccc(Cl)cc4)CC3)nc(OCC(F)(F)F)n2)cc1)C(=O)O)C(=O)Nc1ccc(-n2cnc(O)c2O)cc1 [Compound 3163] | 10 to 10000 pM
46 | O=C(NCCCNC(=O)c1ccc(Nc2nc(NC3(c4ccc(Cl)cc4)CC3)nc(OCC(F)(F)F)n2)cc1)C(=O)Nc1ccc(F)cc1 [Compound 3360] | 10 to 10000 pM
47 | Cc1ccc(NC(=O)C(=O)NCC(C)(C)CNC(=O)c2ccc(Nc3nc(NC4(c5ccc(Cl)cc5)CC4)nc(OCC(F)(F)F)n3)cc2-n2nnnc2C)cc1 [Compound 3518] | 10 to 10000 pM
48 | COC(=O)[C@H](CNC(=O)C(=O)Nc1ccc(OCCc2ccccn2)cc1)NC(=O)c1ccc(Nc2nc(NC3(c4ccc(Cl)cc4)CC3)nc(OCC(F)(F)F)n2)cc1 [Compound 3198] | 10 to 10000 pM
49 | NC(=O)C(=O)NCCNC(=O)c1ccc(Nc2nc(NC3(c4ccc(Cl)cc4)CC3)nc(OCC(F)(F)F)n2)cc1 [Compound 3380] | 10 to 10000 pM
50 | COC(=O)[C@H](CNC(=O)C(=O)Nc1ccc(C(C)(C)C)cc1)NC(=O)c1ccc(Nc2nc(NC3(c4ccc(Cl)cc4)CC3)nc(OCC(F)(F)F)n2)cc1 [Compound 3211] | 10 to 10000 pM
51 | CC(C)(CNC(=O)C(=O)Nc1ccc(Cl)cc1)CNC(=O)c1ccc(Nc2nc(NC3(c4ccc(Cl)cc4)CC3)nc(OCC(F)(F)F)n2)cc1F [Compound 3512] | 10 to 10000 pM
52 | CC(C)(CNC(=O)C(=O)Nc1nc2c(s1)CCCC2)CNC(=O)c1ccc(Nc2nc(NC3(c4ccc(Cl)cc4)CC3)nc(OCC(F)(F)F)n2)cc1 [Compound 3350] | 10 to 10000 pM
53 | CC(C)(CNC(=O)C(N)=O)CNC(=O)c1ccc(Nc2nc(NC3(c4ccc(Cl)cc4)CC3)nc(OCC(F)(F)F)n2)c(O)c1 [Compound 3478] | 10 to 10000 pM
54 | CC(CNC(=O)C(=O)Nc1cccc(F)c1)CNC(=O)c1ccc(Nc2nc(NC3(c4ccc(Cl)cc4)CC3)nc(OCC(F)(F)F)n2)cc1 (stereo not shown) [Compound 3348] | 10 to 10000 pM
55 | COC(=O)[C@H](CNC(=O)C(=O)Nc1ccc(-c2ccc(C)cc2)cc1)NC(=O)c1ccc(Nc2nc(NC3(c4ccc(Cl)cc4)CC3)nc(OCC(F)(F)F)n2)cc1 [Compound 3188] | 10 to 10000 pM

Source: US8916702B2 (priority 2012, dated 2014)
